The test deals with Mu-type opioid receptor (Homo sapiens, UniProt P35372). In words: mu opioid receptor activators, image-based, SAR follow-up (AID 2352).

Usually EC50 stands for the concentration at which the effect is half-maximal. A low value points to greater potency.

SMILES strings stand for the structures.

Chain of Mu-type opioid receptor (P35372 whole entry): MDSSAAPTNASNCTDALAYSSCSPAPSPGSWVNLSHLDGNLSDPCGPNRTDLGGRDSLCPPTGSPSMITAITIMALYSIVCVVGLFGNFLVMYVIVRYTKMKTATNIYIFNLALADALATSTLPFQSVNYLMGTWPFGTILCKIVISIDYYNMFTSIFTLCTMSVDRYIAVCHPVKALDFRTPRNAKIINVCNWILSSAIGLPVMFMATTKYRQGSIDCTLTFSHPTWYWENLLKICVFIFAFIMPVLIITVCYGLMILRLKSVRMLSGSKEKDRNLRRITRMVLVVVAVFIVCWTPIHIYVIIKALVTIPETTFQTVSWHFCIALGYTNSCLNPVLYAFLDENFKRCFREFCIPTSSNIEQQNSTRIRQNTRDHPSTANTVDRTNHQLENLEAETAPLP

`CCC(N=Nc1ccnc2cc(Cl)ccc12)c1ccc(O)cc1` (configuration not stated) [4-[1-[2-(7-chloroquinolin-4-yl)hydrazinyl]propylidene]cyclohexa-2,5-dien-1-one] gave an EC50 of 25.3 µM.
Next, `Oc1ccc(CN=Nc2ccnc3cc(Cl)ccc23)cc1O` [(4Z)-4-[[2-(7-chloroquinolin-4-yl)hydrazinyl]methylidene]-2-hydroxycyclohexa-2,5-dien-1-one]: over 32 µM.

Values taken from BindingDB's records for doi:10.7270/Q2NS0SBF (Burnham Center For Chemical Genomics, 2010).
